Values after ≈ are worked out from the molar mass of the structure shown.
What was measured:
Staphylococcus aureus [1] = experiment: Antimicrobial activity against constitutive beta-lactamase negative methicillin-resistant Staphylococcus aureus COL NRS100 by broth microdilution method at pH 5.5; type: functional
Staphylococcus aureus [2] = experiment: Antimicrobial activity against animal acquired methicillin-resistant Staphylococcus aureus N7112046 by broth microdilution method at pH 7.4; type: functional

What does the source list for `Cc1onc(-c2ccccc2Cl)c1C(=O)N[C@@H]1C(=O)N2[C@@H]1SC(C)(C)[C@@H]2C(=O)O` [CLOXACILLIN]?
MIC (Staphylococcus aureus [1]): 0.25 µg/mL (≈ 0.574 µM); MIC (Staphylococcus aureus [2]): 512 µg/mL (≈ 1170 µM)
